Literature values as cited in publication PMC7238120, “Strong and Selective Inhibitory Effects of the Biflavonoid Selamariscina A against CYP2C8 and CYP2C9 Enzyme Activities in Human Liver Microsomes” (Pharmaceutics, 2020).
Read-outs that look alike come from different tables or passages of the source.

Tests used:
CYP2C8 = target: T1, CYP2C8 (Homo sapiens, UniProt P10632); conditions: cited from earlier work
T1 sequence (P10632 1-490): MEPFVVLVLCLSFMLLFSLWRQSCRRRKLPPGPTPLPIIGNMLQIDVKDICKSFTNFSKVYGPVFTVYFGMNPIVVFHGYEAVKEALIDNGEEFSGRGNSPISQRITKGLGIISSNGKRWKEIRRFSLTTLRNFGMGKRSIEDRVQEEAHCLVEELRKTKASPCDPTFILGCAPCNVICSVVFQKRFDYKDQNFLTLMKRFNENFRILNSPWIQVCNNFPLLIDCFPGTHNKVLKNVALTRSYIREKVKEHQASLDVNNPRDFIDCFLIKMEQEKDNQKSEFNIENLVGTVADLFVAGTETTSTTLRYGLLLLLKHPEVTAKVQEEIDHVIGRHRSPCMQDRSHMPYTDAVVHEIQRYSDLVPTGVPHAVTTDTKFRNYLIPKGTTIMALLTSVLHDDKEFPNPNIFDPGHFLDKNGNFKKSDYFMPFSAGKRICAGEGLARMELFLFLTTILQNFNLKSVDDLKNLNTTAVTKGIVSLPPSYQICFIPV

CYP2C9 = CYP2C9 (Homo sapiens, UniProt P11712); conditions: read-out: Ki, CYP2C9, known inhibitor; cited from earlier work
CYP3A4 = tested on: CYP3A4; parameters: method as in PMID 1602384; conditions: HLMs; cited from earlier work
UGT1A1 = target: T2, UGT1A1 (Homo sapiens, UniProt P22309); parameters: method as in PMID 12386134; conditions: read-out: IC50, UGT1A1-mediated estradiol glucuronidation; cited from earlier work
T2 sequence (P22309 26-533): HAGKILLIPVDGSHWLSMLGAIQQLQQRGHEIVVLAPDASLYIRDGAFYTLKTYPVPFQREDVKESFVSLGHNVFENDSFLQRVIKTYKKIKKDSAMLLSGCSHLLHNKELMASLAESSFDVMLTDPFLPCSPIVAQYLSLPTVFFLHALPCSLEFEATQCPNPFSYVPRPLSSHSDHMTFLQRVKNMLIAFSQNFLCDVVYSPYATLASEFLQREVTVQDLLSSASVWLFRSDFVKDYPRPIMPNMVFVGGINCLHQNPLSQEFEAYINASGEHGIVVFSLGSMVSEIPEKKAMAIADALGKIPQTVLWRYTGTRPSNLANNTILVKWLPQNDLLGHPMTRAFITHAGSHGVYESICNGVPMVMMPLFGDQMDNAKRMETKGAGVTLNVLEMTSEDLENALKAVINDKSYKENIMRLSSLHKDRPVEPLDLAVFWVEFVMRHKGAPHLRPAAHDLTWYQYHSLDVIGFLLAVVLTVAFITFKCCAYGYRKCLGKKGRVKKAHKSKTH

CYP1A2 = target: T3, CYP1A2 (Homo sapiens, UniProt P05177); parameters: method as in PMID 7483658; conditions: human liver microsomes; read-out: Ki, CYP1A2, competitive inhibition; cited from earlier work
T3 construct: incubation mixtures containing pooled human liver microsomes (HLMs, XTreme 200, XenoTech); tissue XenoTech XTreme 200; host or cells: pooled human liver microsomes
T3 sequence (P05177 1-516): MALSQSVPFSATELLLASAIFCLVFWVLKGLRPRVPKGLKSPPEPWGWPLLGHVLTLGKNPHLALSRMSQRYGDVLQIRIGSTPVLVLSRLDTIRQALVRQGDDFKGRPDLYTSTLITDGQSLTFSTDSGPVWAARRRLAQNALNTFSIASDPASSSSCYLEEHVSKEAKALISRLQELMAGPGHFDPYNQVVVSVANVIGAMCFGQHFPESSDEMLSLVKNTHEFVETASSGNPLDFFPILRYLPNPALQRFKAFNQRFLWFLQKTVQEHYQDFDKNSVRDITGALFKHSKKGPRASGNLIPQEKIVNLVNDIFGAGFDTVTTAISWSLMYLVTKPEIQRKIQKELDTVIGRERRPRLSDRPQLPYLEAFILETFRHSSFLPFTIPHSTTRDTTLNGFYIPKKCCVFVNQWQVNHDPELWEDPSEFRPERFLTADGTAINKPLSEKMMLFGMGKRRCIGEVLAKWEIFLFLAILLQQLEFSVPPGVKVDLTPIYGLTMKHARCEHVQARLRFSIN

[1] = read-out: Ki, CYP2C8, known inhibitor

Chain of CYP2C9 (P11712 whole entry): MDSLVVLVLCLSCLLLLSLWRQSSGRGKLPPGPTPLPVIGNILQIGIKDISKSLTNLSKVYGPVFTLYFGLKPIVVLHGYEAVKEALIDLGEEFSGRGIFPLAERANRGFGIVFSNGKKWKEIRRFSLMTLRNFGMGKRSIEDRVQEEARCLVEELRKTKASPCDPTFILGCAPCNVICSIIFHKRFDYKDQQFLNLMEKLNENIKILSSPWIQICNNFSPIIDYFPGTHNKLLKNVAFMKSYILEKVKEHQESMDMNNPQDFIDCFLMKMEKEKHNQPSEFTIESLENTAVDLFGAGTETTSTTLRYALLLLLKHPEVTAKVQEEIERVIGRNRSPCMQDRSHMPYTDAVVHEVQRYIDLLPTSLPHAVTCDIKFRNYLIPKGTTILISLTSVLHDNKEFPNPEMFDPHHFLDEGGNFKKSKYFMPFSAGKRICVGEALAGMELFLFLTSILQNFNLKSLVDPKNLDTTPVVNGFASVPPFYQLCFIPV

CNC(=O)c1ccccc1Sc1ccc2c(/C=C/c3ccccn3)n[nH]c2c1 [axitinib]
Ki (CYP2C8; [1]): 170 nM

CCOC(=O)C1=C(C)NC(C)=C(C(=O)OC)C1c1cccc(Cl)c1Cl (stereo not shown) [felodipine]
IC50 (CYP2C8; read-out: IC50, CYP2C8, known inhibitor): 1200 nM

CNCCC(Oc1ccc(C(F)(F)F)cc1)c1ccccc1 (stereo not shown) [fluoxetine]
Ki (CYP2C9): 19000 to 87000 nM

COCCCC/C(=N\OCCN)c1ccc(C(F)(F)F)cc1 [fluvoxamine]
Ki (CYP2C9): 630 to 16000 nM

O=c1c(O)c(-c2ccc(O)cc2)oc2cc(O)cc(O)c12 [kaempferol]
Concentrations inhibiting metabolism of nifedipine and felodipine by CYP3A4 (CYP3A4): > 10 µM

Cc1cn(-c2cc(NC(=O)c3ccc(C)c(Nc4nccc(-c5cccnc5)n4)c3)cc(C(F)(F)F)c2)cn1 [nilotinib]
Ki (CYP2C8; [1]): 100 nM

O=c1c(O)c(-c2ccc(O)c(O)c2)oc2cc(O)cc(O)c12 [quercetin]
Concentrations inhibiting metabolism of nifedipine and felodipine by CYP3A4 (CYP3A4): > 10 µM

COc1ccc(-c2cc(=O)c3c(OC)c(OC)c(OC)c(OC)c3o2)cc1 [tangeretin]
IC50 (UGT1A1): 1000 nM
Ki (CYP1A2): 68 nM

COc1cc(C(=O)NS(=O)(=O)c2ccccc2C)ccc1Cc1cn(C)c2ccc(NC(=O)OC3CCCC3)cc12 [zafirlukast]
Ki (CYP2C8; read-out: Ki, CYP2C8, well-known inhibitor): 390 nM
